Reference: ChEMBL document CHEMBL5729275 (2022)

Assay: RSV-A Assay : Hep-2 cells, (originally derived from tumors grown in irradiated-cortisonised weanling rats that had been injected with epidermoid carcinoma tissue from a person's larynx, but later found to be indistinguishable from HeLa cells by PCR DNA analysis), were used for the culturing of genotype A, “Long” strain RSV. Flasks were inoculated with RSV and viral stocks were collected once cytopathic effect (CPE) was greater than 90%. Viral stocks in 25% sucrose media were snap frozen using liquid nitrogen to increase viral stability. Viral stock titers were quantified by tissue culture infectious dose 50% (TCID50) using 8,000 cells per well and 3-fold viral dilutions across a 96-well plate, cultured for 4 days. Viral stock titers were also quantified by a plaque forming unit assay, as described elsewhere.Following extensive parameter testing, the final assay is run as follows: Hep-2 cells are seeded into the inner 60 wells of a 96-well plate at 8,000 cells per well in a volume of 50 μL using Growth Media (DMEM without phenol red, 1% L-Glut, 1% Penn/Strep, 1% nonessential amino acids, 10% heat-inactivated FBS). 2-fold serial dilutions of control and test compounds are added to the wells in duplicate in a total volume of 25 μL. Viral stock is then added to the wells at a multiplicity of infection (MOI) of 0.1 in a volume of 25 μL, bringing the total volume of each well to 100 μL. The MOI is calculated using the PFU/mL, or TCID50 if unavailable. Each 96-well plate has a control column of 6 wells with cells and virus but no compound (negative control, max CPE), a column with cells but no compound or virus (positive control, minimum CPE), and a column with no cells or virus or compound (background plate/reagent control). The control wells with cells but no virus are given an additional […], of growth media containing an equal quantity of sucrose as those wells receiving the viral stock in order to keep consistent in media and volume conditions. The outer wells of the plate are filled with 125 μL of moat media (DMEM, 1% Penn/Strep) to act as a thermal and evaporative moat around the test wells. Following a 5-day incubation period, the plates are read using ATPlite (50 uL added per well), which quantifies the amount of ATP (a measure of cell health) present in each well. Assay plates are read using the Envision luminometer.

| Structure (SMILES) | EC50 [nM] |
| --- | --- |
| C[C@](O)(CNC(=O)c1ccc(OC2CC2)c(OC2CC2)c1)c1cc2c(c(-c3ccc(F)c(F)c3)n1)OC[C@@]2(N)C(F)(F)F | < 200 |
| COc1cc(C(=O)NC[C@](O)(c2cc3c(c(-c4ccc(F)cc4)n2)OC[C@@]3(N)C(F)(F)F)C(F)(F)F)ccc1OC1CC1 | < 200 |
| COc1cc(C(=O)NC[C@](O)(c2cc3c(c(-c4ccc(F)c(Cl)c4)n2)OC[C@@]3(N)C(F)(F)F)C2CC2)ccc1OC1CC1 | < 200 |
| COC(=O)N[C@@]1(C(F)(F)F)COc2c1cc([C@@](C)(O)CNC(=O)c1ccc(OC3CC3)c(OC)c1)nc2-c1ccc(F)cc1 | < 200 |
| COc1cc(C(=O)NC[C@](O)(c2cc3c(c(-c4ccc(F)cc4)n2)OC[C@@]3(N)C(F)(F)F)C(F)(F)F)cc2cccnc12 | < 200 |
| COc1cc(C(=O)NC[C@](O)(c2cc3c(c(-c4ccc(F)cc4)n2)OC[C@@]3(NC(=O)COC(C)=O)C(F)(F)F)C(F)(F)F)ccc1OC1CC1 | < 200 |
| COc1cc(C(=O)NC[C@](O)(c2cc3c(c(-c4ccc(F)cc4)n2)OC[C@@]3(NC(=O)CO)C(F)(F)F)C(F)(F)F)ccc1OC1CC1 | < 200 |
| COc1cc(C(=O)NC[C@](O)(c2cc3c(c(-c4ccc(F)cc4)n2)OC[C@@]3(N)C(F)(F)F)C2CC2)ccc1OC1CC1 | < 200 |
| C[C@](O)(CNC(=O)c1ccc(OC2CC2)c(OC2CC2)c1)c1cc2c(c(-c3ccc(F)cc3)n1)OC[C@@]2(N)C(F)(F)F | < 200 |
| COc1cc(C(=O)NC[C@](O)(c2cc3c(c(-c4ccc(F)cc4)n2)OC[C@@]3(N)C(F)(F)F)C2CC2)cc2cccnc12 | < 200 |
| COc1cc(C(=O)NC[C@](C)(O)c2cc3c(c(-c4ccc(F)cc4)n2)OC[C@@]3(N)C(F)(F)F)cc2cccnc12 | < 200 |
| COc1cc(C(=O)NC[C@](O)(c2cc3c(c(-c4ccc(F)cc4)n2)OC[C@]3(N)C(F)(F)F)C(F)(F)F)ccc1OC1CC1 | < 200 |
| COc1cc(C(=O)NC[C@](C)(O)c2cc3c(c(-c4ccc(F)cc4)n2)OC[C@@]3(NC(=N)NC#N)C(F)(F)F)ccc1OC1CC1 | < 200 |
| N[C@@]1(C(F)(F)F)COc2c1cc([C@@](O)(CNC(=O)c1ccc(OC3CC3)c(OC3CC3)c1)C1CC1)nc2-c1ccc(F)cc1 | < 200 |
| COc1cc(C(=O)NC[C@@](O)(c2cc3c(c(-c4ccc(F)cc4)n2)OC[C@@]3(N)C(F)(F)F)C(F)(F)F)ccc1OC1CC1 | > 200 |
| N[C@@]1(C(F)(F)F)COc2c1cc([C@@](O)(CNC(=O)c1cc(OC3CC3)c3ncccc3c1)C1CC1)nc2-c1ccc(F)cc1 | < 200 |
| COc1cc(C(=O)NC[C@](O)(c2cc3c(c(-c4ccc(F)cc4)n2)OC[C@@]3(N)C(F)(F)F)C(C)(C)C)ccc1OC1CC1 | > 200 |
| COc1cc(C(=O)NC[C@](O)(c2cc3c(c(-c4ccc(F)c(F)c4)n2)OC[C@@]3(N)C(F)(F)F)C2CC2)ccc1OC1CC1 | < 200 |
| COc1cc(C(=O)NC[C@](C)(O)c2cc3c(c(-c4ccc(F)cc4)n2)OC[C@@]3(N)C(F)(F)F)ccc1OC1CC1 | < 200 |
| COc1cc(C(=O)NC[C@](O)(c2cc3c(c(-c4ccc(F)cc4)n2)OC[C@]3(N)C(F)(F)F)C(F)(F)F)cc2cccnc12 | < 200 |
| COc1cc(C(=O)NC[C@@](O)(CF)c2cc3c(c(-c4ccc(F)cc4)n2)OC[C@@]3(N)C(F)(F)F)ccc1OC1CC1 | < 200 |
| COc1cc(C(=O)NC[C@](C)(O)c2cc3c(c(-c4ccc(F)c(Cl)c4)n2)OC[C@@]3(N)C(F)(F)F)ccc1OC1CC1 | < 200 |
| COc1cc(C(=O)NC[C@](C)(O)c2cc3c(c(-c4ccc(F)c(F)c4)n2)OC[C@@]3(N)C(F)(F)F)ccc1OC1CC1 | < 200 |
| C[C@](O)(CNC(=O)c1ccc(OC2CC2)c(-c2cccnc2)c1)c1cc2c(c(-c3ccc(F)cc3)n1)OC[C@@]2(N)C(F)(F)F | < 200 |
| C[C@](O)(CNC(=O)c1cc(OC2CC2)c2ncccc2c1)c1cc2c(c(-c3ccc(F)cc3)n1)OC[C@@]2(N)C(F)(F)F | < 200 |
| COc1cc(C(=O)NC[C@@](O)(c2cc3c(c(-c4ccc(F)cc4)n2)OC[C@]3(N)C(F)(F)F)C(F)(F)F)ccc1OC1CC1 | > 200 |
